Laboratory results reported in the METLIN SMRT retention time set (Domingo-Almenara et al. 2019).

Assay: gradient 5% acetonitrile 3 min, to 50% in 2 min, to 85% in 15 min, held 3 min, 100 µL/min
Settings: column: Zorbax Extend-C18 2.1 x 50 mm; eluents: water / acetonitrile, 0.1% formic acid
Outline: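 The mobile phases were water and acetonitrile, each with 0.1% formic acid, pumped at 100 μL/min through a Zorbax Extend-C18 column (2.1 × 50 mm, 1.8 μm). Pure standards were injected as mixtures of ~100 molecules and detected by a quadrupole time-of-flight mass spectrometer in positive and negative ionization mode. Retention time came from computationally picked adduct peaks, each inspected by hand.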

In order of falling RP-LC retention time:
1. COC(=O)c1ccc2c(=O)n(-c3ccc(OC)cc3)c(N3CCN(c4ccccn4)CC3)nc2c1  1290 s
2. COc1cccc(-n2c(=O)c(C(=O)Nc3ccc(F)cc3Cl)c(O)c3cccnc32)c1  1290 s
3. Cc1sc(C)c(S(=O)(=O)N2CCN(c3ccc(F)cc3)CC2)c1-c1cc(C(F)(F)F)on1  1270 s
4. Fc1cccc(-c2noc(-c3nnn4c3COC(c3ccc(Cl)cc3)C4)n2)c1 (centres undefined)  1170 s
5. Fc1cccc(-c2nnc(Cc3nc(-c4ccc(Cl)cc4)no3)o2)c1  1110 s
6. COc1ccc(-c2cc(-c3ccccc3)nc3c2CC(=O)Nc2ccccc2-3)cc1OC  1100 s
7. CS(=O)(=O)N1CCC(C(=O)Nc2ccc(Cl)c(C(F)(F)F)c2)Oc2ccccc21 (centres undefined)  1020 s
8. Cc1ccc(CN2CC(=O)N3CCc4c([nH]c5ccccc45)C3(C)C2=O)cc1 (centres undefined)  1020 s
9. Cc1oc(-c2ccccc2)nc1Cc1noc(Cc2c[nH]c3ccccc23)n1  1010 s
10. CCn1c(=O)sc2cc(S(=O)(=O)N3CCC(C(=O)Nc4cc(C)ccc4OC)CC3)ccc21  978 s
11. O=C(Cn1cccc(-c2nc(-c3ccc(Cl)cc3)no2)c1=O)Nc1ccc(F)cc1  956 s
12. O=c1ccc(-c2ccc(F)cc2)nn1Cc1nc(-c2ccc(F)cc2)no1  952 s
13. Cc1cc(C)cc(NC(=O)c2[nH]c(C)c(S(=O)(=O)N3CCCC3)c2C)c1  950 s
14. Cc1ccc(S(=O)(=O)NCCc2nc(-c3cccc(-c4ccnn4C)c3)no2)cc1  917 s
15. O=C(NC1CC1)C1Cc2ccccc2CN1S(=O)(=O)c1ccc(Cl)cc1 (centres undefined)  909 s
16. COCCN1C(=O)c2ccccc2C(C(=O)Nc2ccccc2OC)C12CCCC2 (centres undefined)  905 s
17. CCCNS(=O)(=O)c1cc(-c2nnc(-c3ccc(OC)c(OC)c3)o2)ccc1C  901 s
18. N#Cc1ccc(-c2nc(C3CC(=O)N(c4ccc(F)cc4)C3)no2)cc1 (centres undefined)  897 s
19. Nc1ccccc1SC1CC(=O)N(c2ccccc2Cl)C1=O (centres undefined)  884 s
20. CCc1nc(-c2csc(S(=O)(=O)N3CCCC(C(=O)Nc4nccs4)C3)c2)no1 (centres undefined)  884 s
21. Cc1ccccc1-c1cn2ccn(-c3cccc(Cl)c3)c(=O)c2n1  883 s
22. Cc1ccc(NC(=O)N2CCCC2c2cc(C)no2)c(Cl)c1 (centres undefined)  880 s
23. CCC(=O)N(CC(=O)N1CCc2sccc2C1COc1ccccc1OC)C1CC1 (centres undefined)  871 s
24. CCC1Oc2ccc(S(=O)(=O)N3CCC(C(=O)Nc4ccc(C)cc4C)CC3)cc2NC1=O (centres undefined)  868 s
25. O=C(NC1(c2nc(-c3ccncc3)no2)CCCCC1)c1ccccc1  863 s
26. COc1ccc(Cl)cc1NC(=O)CSc1nc2nc(C)cc(C)n2n1  856 s
27. O=C(CN1CCN(Cc2ccc(F)cc2)C1=O)NCC1CCCCC1  854 s
28. COc1cccc(CNC(=O)C2CCCN(C(=O)c3[nH]c(C)c(C(=O)OC(C)C)c3C)C2)c1 (centres undefined)  845 s
29. CCN1C(=O)COc2ccc(-c3noc(C4CC(=O)N(c5ccc(OC)cc5)C4)n3)cc21 (centres undefined)  842 s
30. COc1ccc(-c2ccc3nc(N4CCC(C(=O)O)CC4)sc3n2)cc1  825 s
31. CCNC(=O)c1ccc(N2CCc3ccccc32)s1  824 s
32. Cc1nc(N2CCN(c3ccccn3)CC2)nc2c1C(=O)CC(c1ccc(Cl)cc1)C2 (centres undefined)  823 s
33. Cc1ccc(C(=O)N2CC3CN(S(=O)(=O)c4cccc(F)c4)CC(C2)O3)s1  821 s
34. CN(C)c1nc(C(=O)N2CCN(c3cccc(Cl)c3)CC2)nc2c1cnn2C  818 s
35. O=C(COc1ccccc1)N1CCC(OCc2nc(C3CC3)no2)CC1  817 s
36. Cc1cc(C)cc(Nc2nc3ccncc3n(Cc3ccccc3)c2=O)c1  817 s
37. CCn1nc(C)c2ccnc(N3CCC(C(=O)N4CCN(c5ccccc5Cl)CC4)CC3)c21  812 s
38. Cc1ccc(CNC(=O)C2(C)Oc3cccnc3N(C)C2=O)cc1 (centres undefined)  806 s
39. Cc1ccc2ncn(C3CCN(C(=O)Nc4ccc(C)c(C)c4)CC3)c(=O)c2c1  799 s
40. CN1C(=O)C(C)(C(=O)NCc2ccccc2Cl)Oc2cccnc21 (centres undefined)  795 s
41. CCCN1C(=O)c2c(C(=O)N(C)Cc3ccccc3)ncn2CC1(C)C(=O)NCc1ccc(C)cc1 (centres undefined)  793 s
42. CCC(C)C(NC(=O)c1ccc(C)cc1C)C(=O)Nc1nc2ccccc2[nH]1 (centres undefined)  786 s
43. Cc1ccc(Nc2nc(C(=O)NCc3ccco3)nc3ccccc23)cc1  779 s
44. CC(Cc1ccco1)NC(=O)CCCn1c2ccccc2c2cnn(C)c(=O)c21 (centres undefined)  775 s
45. CCCNc1cc(-n2nc(C)cc2C)ncn1  771 s
46. COc1ccc(-c2c(C)noc2NC(C)=O)cc1S(=O)(=O)Nc1ccc(F)cc1C  770 s
47. CCN1CCCn2cc(S(=O)(=O)Nc3ccc(F)c(F)c3)cc2C1=O  768 s
48. COCC(=O)N(C1CCOCC1)C1CCN(S(=O)(=O)c2cccc(F)c2)CC1  758 s
49. CC1CN(C(=O)c2cccc3c2-c2ccccc2C3=O)CC(C)O1 (centres undefined)  754 s
50. C=CCNC(=O)c1cnn(-c2ccc(-c3nc(C)no3)cn2)c1C  750 s
51. COc1ccc(C2C(C(=O)N3CCCCCC3)c3cc(OC)c(OC)cc3C(=O)N2C)cc1OC (centres undefined)  748 s
52. Cc1nc2nc(-c3ccccc3)nn2c(C)c1CC(=O)N(CCO)Cc1ccccc1  740 s
53. CCOC(=O)N1CCN(S(=O)(=O)c2cc(N3C(=O)CCS3(=O)=O)ccc2C)CC1  729 s
54. CC(C)CNC(=O)CN1CCN(Cc2ccccc2)C1=O  717 s
55. Cc1cc(=O)n(CC(=O)NCCc2ccc(Cl)cc2)c(N2CCOCC2)n1  701 s
56. Cc1cc(Nc2ccccc2)nc(N2CCN(C(=O)Nc3ccc(F)cc3)CC2)n1  696 s
57. CC(C)c1nnc2n1CCN(C(=O)COc1ccc(Cl)cc1)C2  692 s
58. CCOC(=O)c1c(N)n(-c2ccccc2OC)c2nc3ccccc3nc12  691 s
59. CS(=O)(=O)N1CCC(CNC(=O)CSCc2ccccc2)CC1  691 s
60. CCc1cc(=O)n(CC(=O)Nc2ccccc2)c(N2CCOCC2)n1  687 s
61. CC(C)(CO)NC(=O)Cc1ccc(NC(=O)CSc2ccc(F)cc2)cc1  681 s
62. Cc1ccc(NC(=O)Cn2cnc3nc(N4CCCC(C(=O)NC5CC5)C4)sc3c2=O)c(F)c1 (centres undefined)  680 s
63. c1cc(-c2nc(-c3ccc4nncn4c3)no2)co1  679 s
64. COc1ccc(C(C)NC(=O)c2cn3cc(C)ccc3n2)cc1 (centres undefined)  671 s
65. COCCCNC(=O)CC1CCN(C(=O)c2[nH]c(C)c(C)c2C)CC1  667 s
66. CCN1CCN(C(=O)Nc2ccc(Br)cc2)c2cccnc21  666 s
67. CCNC(=O)C1CCCN(c2nc3ncn(CC(=O)Nc4ccccc4Cl)c(=O)c3s2)C1 (centres undefined)  664 s
68. O=C(C1=NNc2cc(Cl)ccc2S1(=O)=O)N1CCOCC1  664 s
69. CN(Cc1nc2cc(C(=O)N3CCCC3)ccc2n1C)C(=O)Nc1ccc(Cl)cc1  654 s
70. Cn1nnc2cc(CNC(=O)c3ccccn3)ccc21  651 s
71. CCN1CCC2(CC1)OC(=O)C(C)=C2C(=O)Nc1ccc(Br)cc1F  650 s
72. O=C(NC1CCCC1)C1CCN(S(=O)(=O)c2cc(C(=O)N3CCCC3)cs2)CC1  644 s
73. CCCc1cc(N2CCN(C(=O)c3cccn3C)CC2)nc2nnc(CC)n12  636 s
74. CC(=O)Nc1ccc(NC(=O)C2CC(=O)N(c3n[nH]c4cccc(F)c34)C2)cc1 (centres undefined)  634 s
75. Cc1nc(-c2ccccc2)nn1C1CCN(S(=O)(=O)c2cn(C)cn2)C1 (centres undefined)  632 s
76. Cc1ccsc1C(=O)N1CCC(N2C[C@H](O)C[C@H]2C(=O)NC2CCCCC2)CC1  631 s
77. Cc1nn(C)c(C)c1CNC(=O)CN1CCN(Cc2ccc(F)cc2)C1=O  623 s
78. O=C(CSc1ccc(N2CCCC(C(=O)NC3CC3)C2)nn1)NCc1ccc(F)cc1 (centres undefined)  622 s
79. CC1(C)CC(NC(=O)COc2ccccc2Cl)CC(C)(C)N1  618 s
80. COc1cc(OC)c(NC(=O)N2CCN(CCn3c(C(C)C)nc4cccnc43)CC2)cc1Cl  618 s
81. Cc1ccc2cc(CCC(=O)NC(C)c3cn(C)nc3C)c(=O)[nH]c2c1 (centres undefined)  618 s
82. CCC(=O)N1CCc2cc(C(N)=O)ccc21  613 s
83. O=C(N[C@@H]1CN(c2ncccn2)C[C@H]1CO)c1nccc2ccccc12  613 s
84. COc1ccc(Nc2c(C(=O)N3CCCCC3)cnc3nc(C)ccc23)cc1  605 s
85. CNC(=O)C1CCCN(c2nc3ncn(CC(=O)NC4CCCC4)c(=O)c3s2)C1 (centres undefined)  605 s
86. CNC(=O)NC1CCN(C(=O)c2ccc(F)cc2)C1 (centres undefined)  600 s
87. CC(=O)N(Cc1nn(C)c2c1CN(Cc1ccc(OCC(N)=O)cc1)CC2)c1ccccc1  585 s
88. Cc1nn(C2CCS(=O)(=O)C2)c(C)c1C(=O)O (centres undefined)  571 s
89. CS(=O)(=O)N1CCC(C(=O)N2CC3CC(C2)c2cccc(=O)n2C3)CC1 (centres undefined)  528 s
